Data: patent US20200024278A1, “COMPOSITION COMPRISING ANTIBIOTIC COMPOUND AND AN HETEROCYCLIC COMPOUND AND THEIR USE IN PREVENTING OR TREATING BACTERIAL INFECTIONS” (MUTABILIS, priority 2016, published 2020)
Structures can show the parent of a compound that is named as a salt.

Tests used:
Test in all cases: MIC, broth microdilution (CLSI), substance alone or ATB combined with compound at 4 or 8 μg/mL
ECO 190317 = type: cell-based, E. coli; details: ECO 190317; for MIC ATB combined with Example: Example @8 μg/ml
Procedure, shortened: (§1)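 Growth inhibition endpoint, read visually after 16-20 h at 35° C in ambient air. Cation-adjusted Mueller-Hinton broth, inoculum 5·10^5 CFU/mL, CLSI M7-A7 protocol.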

ECO UFR39 = type: cell-based, E. coli; details: ECO UFR39; for MIC ATB combined with Example: Example @8 μg/ml
Procedure, shortened: as §1

PAE 105250 = type: cell-based, P. aeruginosa; details: PAE 105250; for MIC ATB combined with Example: Example @8 μg/ml
Procedure, shortened: as §1

PAE UFR48 = type: cell-based, P. aeruginosa; details: PAE UFR48; for MIC ATB combined with Example: Example @8 μg/ml
Procedure, shortened: as §1

PAE UFR90 = type: cell-based, P. aeruginosa; details: PAE UFR90; for MIC ATB combined with Example: Example @8 μg/ml
Procedure, shortened: as §1

ECL P99 = type: cell-based, E. cloacae; details: ECL P99; for MIC ATB combined with Example: Example @8 μg/ml
Procedure, shortened: as §1

KPN UFR42 = type: cell-based, K. pneumoniae; details: KPN UFR42; for MIC ATB combined with Example: Example @8 μg/ml
Procedure, shortened: as §1

KPN 6299 = type: cell-based, K. pneumoniae; details: Example @8 μg/ml
Procedure, shortened: as §1

KPN BAA-1898 = type: cell-based, K. pneumoniae; details: KPN BAA-1898; for MIC ATB combined with Example: Example @8 μg/ml
Procedure, shortened: as §1

SPN 49619 = type: cell-based, S. pneumoniae; details: SPN 49619; for MIC ATB combined with Example: Example @8 μg/ml
Procedure, shortened: as §1

SAU 29213 = type: cell-based, S. aureus; details: for MIC ATB combined with Example: SAU 29213, Example @8 μg/ml
Procedure, shortened: as §1

ABA UFR154 = type: cell-based, A. baumannii; details: Acinetobacter baumannii, substance alone, read-out: MIC
Procedure, shortened: as §1

ABA UFR155 = type: cell-based, A. baumannii; details: Acinetobacter baumannii, substance alone, read-out: MIC
Procedure, shortened: as §1

[1] = Escherichia coli, substance alone, read-out: MIC
[2] = Pseudomonas aeruginosa, substance alone, read-out: MIC

MIC ATB combined with Example (ECO 190317; ATB ATM): <0.031 µg/mL
MIC ATB combined with Example (ECO 190317; ATB FEP): <0.031 µg/mL
MIC ATB combined with Example (ECO 190317; ATB FOS): <0.125 µg/mL
MIC ATB combined with Example (ECO 190317; ATB MEM): <0.031 µg/mL
MIC ATB combined with Example (ECO 190317; ATB PIP): <0.031 µg/mL
MIC (ECO 190317; [1]): 0.5 µg/mL
MIC ATB combined with Example (ECO UFR39; ATB ATM): <=0.031 μg/mL
MIC ATB combined with Example (ECO UFR39; ATB FEP): <=0.031 μg/mL
MIC ATB combined with Example (ECO UFR39; ATB FOS): <0.125 µg/mL
MIC ATB combined with Example (ECO UFR39; ATB MEM): <0.031 µg/mL
MIC ATB combined with Example (ECO UFR39; ATB PIP): <0.031 µg/mL
MIC (ECO UFR39; [1]): 2 µg/mL
MIC ATB combined with Example (PAE 105250; ATB ATM): <0.031 µg/mL
MIC ATB combined with Example (PAE 105250; ATB FEP): <0.031 µg/mL
MIC ATB combined with Example (PAE 105250; ATB FOS): <0.125 µg/mL
MIC ATB combined with Example (PAE 105250; ATB MEM): <0.031 µg/mL
MIC ATB combined with Example (PAE 105250; ATB PIP): <0.031 µg/mL
MIC (PAE 105250; [2]): 4 µg/mL
MIC ATB combined with Example (PAE UFR48; ATB ATM): <0.031 µg/mL
MIC ATB combined with Example (PAE UFR48; ATB FEP): <0.031 µg/mL
MIC ATB combined with Example (PAE UFR48; ATB FOS): <0.125 µg/mL
MIC ATB combined with Example (PAE UFR48; ATB MEM): <0.031 µg/mL
MIC ATB combined with Example (PAE UFR48; ATB PIP): <0.031 µg/mL
MIC (PAE UFR48; [2]): 4 µg/mL
MIC ATB combined with Example (PAE UFR90; ATB ATM): <0.031 µg/mL
MIC ATB combined with Example (PAE UFR90; ATB FEP): <0.031 µg/mL
MIC ATB combined with Example (PAE UFR90; ATB FOS): <0.125 µg/mL
MIC ATB combined with Example (PAE UFR90; ATB MEM): <0.031 µg/mL
MIC ATB combined with Example (PAE UFR90; ATB PIP): <0.031 µg/mL
MIC (PAE UFR90; [2]): 4 µg/mL
MIC ATB combined with Example (ECL P99; ATB ATM): <0.031 µg/mL
MIC ATB combined with Example (ECL P99; ATB FEP): <0.031 µg/mL
MIC ATB combined with Example (ECL P99; ATB FOS): <0.125 µg/mL
MIC ATB combined with Example (ECL P99; ATB MEM): <0.031 µg/mL
MIC ATB combined with Example (ECL P99; ATB PIP): <0.031 µg/mL
MIC (ECL P99; Enterobacter cloacae, substance alone, read-out: MIC): 2 µg/mL
MIC ATB combined with Example (KPN UFR42; ATB ATM): 0.063 µg/mL
MIC ATB combined with Example (KPN UFR42; ATB FEP): <=0.031 μg/mL
MIC ATB combined with Example (KPN UFR42; ATB FOS): 8 µg/mL
MIC ATB combined with Example (KPN UFR42; ATB MEM): >32 µg/mL
MIC ATB combined with Example (KPN UFR42; ATB PIP): >32 µg/mL
MIC (KPN UFR42; Klebsiella pneumoniae, substance alone, read-out: MIC): > 32 µg/mL
MIC ATB combined with Example (KPN 6299; ATB ATM): <=0.031 μg/mL
MIC ATB combined with Example (KPN 6299; ATB FEP): 0.063 µg/mL
MIC ATB combined with Example (KPN 6299; ATB FOS): 32 µg/mL
MIC ATB combined with Example (KPN 6299; ATB MEM): 0.063 µg/mL
MIC ATB combined with Example (KPN 6299; ATB PIP): 1 µg/mL
MIC ATB combined with Example (KPN BAA-1898; ATB ATM): <=0.031 μg/mL
MIC ATB combined with Example (KPN BAA-1898; ATB FEP): <=0.031 μg/mL
MIC ATB combined with Example (KPN BAA-1898; ATB FOS): 2 µg/mL
MIC ATB combined with Example (KPN BAA-1898; ATB MEM): <=0.031 μg/mL
MIC ATB combined with Example (KPN BAA-1898; ATB PIP): <=0.031 μg/mL
MIC (KPN BAA-1898; Klebsiella pneumoniae, BAA1898, substance alone, read-out: MIC): 16 µg/mL
MIC ATB combined with Example (SPN 49619; ATB ATM): <0.031 µg/mL
MIC ATB combined with Example (SPN 49619; ATB FEP): <0.031 µg/mL
MIC ATB combined with Example (SPN 49619; ATB FOS): <0.125 µg/mL
MIC ATB combined with Example (SPN 49619; ATB MEM): <0.031 µg/mL
MIC ATB combined with Example (SPN 49619; ATB PIP): <0.031 µg/mL
MIC (SPN 49619; Streptococcus pneumoniae, substance alone, read-out: MIC): 1 µg/mL
MIC ATB combined with Example (SAU 29213; ATB ATM): >32 µg/mL
MIC ATB combined with Example (SAU 29213; ATB FEP): 0.5 µg/mL
MIC ATB combined with Example (SAU 29213; ATB FOS): <=0.125 μg/mL
MIC ATB combined with Example (SAU 29213; ATB MEM): <=0.031 μg/mL
MIC ATB combined with Example (SAU 29213; ATB PIP): 1 µg/mL
MIC (SAU 29213; Staphylococcus aureus, substance alone, SAU 29213 (MSSA 29213), read-out: MIC): 32 µg/mL
MIC (ABA UFR154): > 32 µg/mL
MIC (ABA UFR155): > 32 µg/mL
SMILES: NCCCn1c2c(sc1=O)C1CN(C2)C(=O)N1OS(=O)(=O)O (stereo not shown) [Example 10, [5-(3-aminopropyl)-4,9-dioxo-3-thia-5,8,10-triaza-tricyclo[6.2.1.0^2,6]undec-2(6)-en-10-yl] hydrogen sulfate]
